Assay results published in US9765069B2, “Antimicrobial compounds” (OXFORD UNIVERSITY INNOVATION LIMITED, priority 2012, dated 2017).
Values after ≈ are worked out from the molar mass of the structure shown.

Tests used:
S1 = assay: MIC determination (bacteria), strain S1; type: cell-based, S. aureus; details: Table 2, 2-fold broth dilution; for MIC: Staphylococcus aureus
Protocol: (§1) MIC determination (bacteria); MICs were determined based on Clinical and Laboratory Standards Institute (CLSI) methodology (Methods for dilution antimicrobial susceptibility tests for bacteria that grow aerobically; Approved Standard—seventh edition. 2006, M7-A7, CLSI, Wayne Pa.) by a 2-fold broth dilution technique in Mueller Hinton (pH7.4 Biorad). For S. pneumoniae, the medium was supplemented with 2.5% laked horse blood. For H. influenzae, the medium was haemophilus test medium (H.T.M.). Overnight cultures were diluted to obtain the final inoculum of 10^5 cfu/well. Incubation was 37° C. overnight in ambient air. The MIC was defined as the lowest concentration which inhibited all visual growth and expressed in μg/ml. For each bacterial species, all of the molecules were tested in the same experiment in order to give a head-to-head comparison.

H4 = assay: MIC determination (bacteria), strain H4; type: cell-based, H. influenzae; details: Table 2 and its footnote f, haemophilus test medium; for MIC: Haemophilus influenzae
Protocol: as §1

P9 = assay: MIC determination (bacteria), strain P9; type: cell-based, S. pneumoniae; details: Table 2, 2-fold broth dilution; for MIC: Streptococcus pneumoniae
Protocol: as §1

H3 = assay: MIC determination (bacteria), strain H3; type: cell-based, H. influenzae; details: Table 2, haemophilus test medium; for MIC: Haemophilus influenzae
Protocol: as §1

E2 = assay: MIC determination (bacteria), strain E2; type: cell-based, enterococcus; details: Table 2, 2-fold broth dilution; for MIC: Enterococcus
Protocol: as §1

P1 = assay: MIC determination (bacteria), strain P1; type: cell-based, S. pneumoniae; details: Table 2, 2-fold broth dilution; for MIC: Streptococcus pneumoniae
Protocol: as §1

S4 = assay: MIC determination (bacteria), strain S4; type: cell-based, S. aureus; details: Table 2, 2-fold broth dilution; for MIC: Staphylococcus aureus
Protocol: as §1

P9B = assay: MIC determination (bacteria), strain P9B; type: cell-based, S. pneumoniae; details: Table 2, 2-fold broth dilution; for MIC: Streptococcus pneumoniae
Protocol: as §1

[1] = tested on: S2 (S. aureus 2, MRSA in vivo); assay: MIC determination (bacteria), strain S2; type: cell-based; details: Table 2, 2-fold broth dilution; for MIC: Staphylococcus aureus, MRSA
Protocol: as §1

E1 = assay: MIC determination (bacteria), strain E1; type: cell-based, enterococcus; details: Table 2, 2-fold broth dilution; for MIC: Enterococcus
Protocol: as §1

S26 = assay: MIC determination (bacteria), strain S26; type: cell-based, S. aureus; details: Table 2, 2-fold broth dilution; for MIC: Staphylococcus aureus
Protocol: as §1

CCCCCCC(=O)N1CC(=O)C(=C(O)CC2CCCCC2)C1=O [27b]
MIC S1 (S1): 2 µg/mL (≈ 5.96 µM) | MIC H4 (H4): 0.5 µg/mL (≈ 1.49 µM) | MIC P9 (P9): 0.5 µg/mL (≈ 1.49 µM) | MIC H3 (H3): 4 µg/mL (≈ 11.9 µM) | MIC E2 (E2): 2 µg/mL (≈ 5.96 µM) | MIC P1 (P1): 1 µg/mL (≈ 2.98 µM) | MIC S4 (S4): 4 µg/mL (≈ 11.9 µM) | MIC P9B (P9B): 2 µg/mL (≈ 5.96 µM) | MIC S2 [1]: 4 µg/mL (≈ 11.9 µM) | MIC E1 (E1): 2 µg/mL (≈ 5.96 µM) | MIC S26 (S26): 4 µg/mL (≈ 11.9 µM)

CCCC(=O)N1CC(=O)C(=C(O)CC23CC4CC(CC(C4)C2)C3)C1=O [27j]
MIC S1 (S1): 16 µg/mL (≈ 46.3 µM) | MIC H4 (H4): 4 µg/mL (≈ 11.6 µM) | MIC P9 (P9): 4 µg/mL (≈ 11.6 µM) | MIC H3 (H3): 16 µg/mL (≈ 46.3 µM) | MIC E2 (E2): 8 µg/mL (≈ 23.2 µM) | MIC P1 (P1): 4 µg/mL (≈ 11.6 µM) | MIC S4 (S4): 16 µg/mL (≈ 46.3 µM) | MIC P9B (P9B): 4 µg/mL (≈ 11.6 µM) | MIC S2 [1]: 16 µg/mL (≈ 46.3 µM) | MIC E1 (E1): 8 µg/mL (≈ 23.2 µM) | MIC S26 (S26): 16 µg/mL (≈ 46.3 µM)

CCCCCCC(=O)N1CC(=O)/C(=C(/O)CO[C@H]2C[C@@H](C)CC[C@@H]2C(C)C)C1=O [27n]
MIC (S1): > 64 µg/mL | MIC (H4): 2 µg/mL (≈ 4.91 µM) | MIC (P9): 0.5 µg/mL (≈ 1.23 µM) | MIC (H3): > 64 µg/mL | MIC (E2): 2 µg/mL (≈ 4.91 µM) | MIC (P1): 0.5 µg/mL (≈ 1.23 µM) | MIC (S4): > 64 µg/mL | MIC (P9B): 8 µg/mL (≈ 19.6 µM) | MIC [1]: > 64 µg/mL | MIC (E1): 8 µg/mL (≈ 19.6 µM) | MIC (S26): > 64 µg/mL

CCCC(=O)N1CC(=O)C(=C(O)CCCCC2CCCCC2)C1=O [27o]
MIC S1 (S1): 4 µg/mL (≈ 11.9 µM) | MIC H4 (H4): 2 µg/mL (≈ 5.96 µM) | MIC P9 (P9): 0.5 µg/mL (≈ 1.49 µM) | MIC H3 (H3): 8 µg/mL (≈ 23.8 µM) | MIC E2 (E2): 2 µg/mL (≈ 5.96 µM) | MIC P1 (P1): 0.5 µg/mL (≈ 1.49 µM) | MIC S4 (S4): 16 µg/mL (≈ 47.7 µM) | MIC P9B (P9B): 4 µg/mL (≈ 11.9 µM) | MIC S2 [1]: 4 µg/mL (≈ 11.9 µM) | MIC E1 (E1): 4 µg/mL (≈ 11.9 µM) | MIC S26 (S26): 8 µg/mL (≈ 23.8 µM)

Cc1ccccc1C(=O)N1CC(=O)C(=C(O)CCCCC2CCCCC2)C1=O [27s]
MIC S1 (S1): 16 µg/mL (≈ 41.7 µM) | MIC H4 (H4): 4 µg/mL (≈ 10.4 µM) | MIC P9 (P9): 2 µg/mL (≈ 5.22 µM) | MIC H3 (H3): 32 µg/mL (≈ 83.4 µM) | MIC E2 (E2): 8 µg/mL (≈ 20.9 µM) | MIC P1 (P1): 2 µg/mL (≈ 5.22 µM) | MIC S4 (S4): 16 µg/mL (≈ 41.7 µM) | MIC P9B (P9B): 16 µg/mL (≈ 41.7 µM) | MIC S2 [1]: 16 µg/mL (≈ 41.7 µM) | MIC E1 (E1): 8 µg/mL (≈ 20.9 µM) | MIC S26 (S26): 16 µg/mL (≈ 41.7 µM)

CCCCCCC(=O)N1CC(=O)C(=C(O)CCCCc2ccccc2)C1=O [28b]
MIC S1 (S1): 2 µg/mL (≈ 5.38 µM) | MIC H4 (H4): 2 µg/mL (≈ 5.38 µM) | MIC P9 (P9): 0.25 µg/mL (≈ 0.673 µM) | MIC H3 (H3): 8 µg/mL (≈ 21.5 µM) | MIC E2 (E2): 1 µg/mL (≈ 2.69 µM) | MIC P1 (P1): 0.5 µg/mL (≈ 1.35 µM) | MIC S4 (S4): 2 µg/mL (≈ 5.38 µM) | MIC P9B (P9B): 2 µg/mL (≈ 5.38 µM) | MIC S2 [1]: 2 µg/mL (≈ 5.38 µM) | MIC E1 (E1): 2 µg/mL (≈ 5.38 µM) | MIC S26 (S26): 4 µg/mL (≈ 10.8 µM)

CCCCCCC(=O)N1CC(=O)C(=C(O)CCc2ccc(SC)cc2)C1=O [28d]
MIC S1 (S1): 4 µg/mL (≈ 10.3 µM) | MIC H4 (H4): 1 µg/mL (≈ 2.57 µM) | MIC P9 (P9): 0.5 µg/mL (≈ 1.28 µM) | MIC H3 (H3): 4 µg/mL (≈ 10.3 µM) | MIC E2 (E2): 2 µg/mL (≈ 5.13 µM) | MIC P1 (P1): 0.5 µg/mL (≈ 1.28 µM) | MIC S4 (S4): 16 µg/mL (≈ 41.1 µM) | MIC P9B (P9B): 4 µg/mL (≈ 10.3 µM) | MIC S2 [1]: 8 µg/mL (≈ 20.5 µM) | MIC E1 (E1): 1 µg/mL (≈ 2.57 µM) | MIC S26 (S26): 32 µg/mL (≈ 82.2 µM)

CSCCC1C(=O)C(=C(O)CC23CC4CC(CC(C4)C2)C3)C(=O)N1C(C)=O (stereo not drawn) [31d]
MIC S1 (S1): 16 µg/mL (≈ 40.9 µM) | MIC H4 (H4): 4 µg/mL (≈ 10.2 µM) | MIC P9 (P9): 8 µg/mL (≈ 20.4 µM) | MIC H3 (H3): 32 µg/mL (≈ 81.7 µM) | MIC E2 (E2): 16 µg/mL (≈ 40.9 µM) | MIC P1 (P1): 8 µg/mL (≈ 20.4 µM) | MIC S4 (S4): 16 µg/mL (≈ 40.9 µM) | MIC P9B (P9B): 8 µg/mL (≈ 20.4 µM) | MIC S2 [1]: 32 µg/mL (≈ 81.7 µM) | MIC E1 (E1): 16 µg/mL (≈ 40.9 µM) | MIC S26 (S26): 32 µg/mL (≈ 81.7 µM)

CSCCC1C(=O)/C(=C(/O)CC(C)(C)CC(=O)OCCC23CC4CC(CC(C4)C2)C3)C(=O)N1C(C)=O (stereo not drawn) [31i]
MIC (S1): 8 µg/mL (≈ 15.4 µM) | MIC (H4): 8 µg/mL (≈ 15.4 µM) | MIC (P9): 1 µg/mL (≈ 1.92 µM) | MIC (H3): > 64 µg/mL | MIC (E2): 1 µg/mL (≈ 1.92 µM) | MIC (P1): 2 µg/mL (≈ 3.85 µM) | MIC (S4): 16 µg/mL (≈ 30.8 µM) | MIC (P9B): 4 µg/mL (≈ 7.7 µM) | MIC [1]: 8 µg/mL (≈ 15.4 µM) | MIC (E1): 2 µg/mL (≈ 3.85 µM) | MIC (S26): > 64 µg/mL
